From patent US20060194769A1, “Small molecules that reduce fungal growth” (University of Vermont and State Agricultural College, priority 2005, published 2006)

Columns and labels:
[1] = system: Candida albicans; test: Quantification of inhibition of the budded-to-hyphal-form transition and synergy assay in 10% serum media; format: cell-based; conditions: 37° C., synergy assay: two molecules (100 μM) added together, normalized to % hyphae formed when no molecule was added
Protocol: Cultures of Candida albicans were grown as described in Toenjes K. A. et al. (Antimicrobial Agents and Chemotherapy, 49(3):963-972, 2005). To induce hyphal growth, stationary-phase cultures were diluted into 5 ml of either YPD (1% yeast extract, 2% peptone, and 2% dextrose) plus 10% (vol/vol) fetal calf serum, Spider medium, Lee's medium (Lee, K. et al., Sabouraudia, 13:148-153, 1975), or M199 pH 8 medium (Sigma-Aldrich, St. Louis, Mo.) and grown at 37° C. with shaking at 250 rpm.
Quantification of inhibition of the budded-to-hyphal-form transition was accomplished by counting the numbers of individual budded cells versus the number of hyphae in the population. More than 100 cells were counted for each assay in duplicate and all assays were repeated four times. Individual hyphae were counted as one cell, although the hyphae usually consisted of multiple individual hyphal cells. The percentage of hyphae reported was normalized to the percentage of hyphae formed when no molecule was added.
For the synergy assay, two different molecules (100 μM) were added together and the assay was performed in 10% serum media to induce hyphal formation.

[2] = system: tumor; conditions: cited from earlier work

Row | SMILES | % hyphae in 10% serum [1] [%] | anti-tumor activity [2]
1 | CN1CCN(C2=Nc3cc(Cl)ccc3Nc3ccccc32)CC1 [Clozapine, 8-Chloro-11-(4-methyl-1-piperazinyl)-5H-dibenzo[b,e][1,4]-diazepine] | 33 | –
2 | O=C(Nc1ccccc1)c1cc([N+](=O)[O-])ccc1Cl [GW9662, 2-Chloro-5-nitro-N-phenylbenzamide] | 59 | –
3 | CCOC(=O)C1=C(N)Oc2ccc(Br)cc2C1C(C#N)C(=O)OCC (centres unmarked) [HA14-1, Ethyl[2-amino-6-bromo-4-(1-cyano-2-ethoxy-2-oxoethyl)]-4H-chromene-3-carboxylate] | 34 | –
4 | CCC(C)C(COC(Cc1ccccc1)C(=O)NC(CCS(C)(=O)=O)C(=O)OC(C)C)NCC(N)CS [L-744,832, (2S)-2-[[(2S)-2-[(2S,3S)-2-[(2R)-2-Amino-3-mercaptopropyl]amino]-3-methylpentyl]oxy]-1-oxo-3-phenylpropyl]amino]-4-(methylsulfonyl)-butanoic Acid 1-Methylethyl Ester] | – | potent anti-tumor activity
5 | OCc1ccc(-c2nn(Cc3ccccc3)c3ccccc23)o1 [YC-1, 3-(5′-Hydroxymethyl-2′-furyl)-1-benzylindazole] | – | potent anti-tumor activity
